Assay results taken from the NIST ThermoML archive (doi:10.1016/j.jct.2019.05.009).

Assay: molar heat capacity at constant pressure
Conditions: 101.33 kPa, Crystal, relaxation calorimetry

[Al] [aluminum]
Conditions | molar heat capacity at constant pressure [J/K/mol]
1.863 K | 0.002602
1.936 K | 0.002749
2.01 K | 0.002882
2.089 K | 0.002997
2.173 K | 0.003177
2.264 K | 0.003323
2.36 K | 0.003531
2.459 K | 0.003773
2.562 K | 0.003901
2.677 K | 0.00413
2.795 K | 0.004373
2.915 K | 0.004596
3.042 K | 0.004765
3.177 K | 0.005056
3.318 K | 0.005413
3.464 K | 0.005679
3.615 K | 0.005941
3.776 K | 0.006361
3.943 K | 0.00681
4.119 K | 0.007189
4.301 K | 0.007838
4.492 K | 0.008275
4.687 K | 0.008914
4.896 K | 0.009549
5.111 K | 0.01026
5.34 K | 0.01095
5.574 K | 0.01158
5.822 K | 0.01268
6.08 K | 0.01359
6.349 K | 0.01458
6.636 K | 0.01573
6.925 K | 0.01714
7.23 K | 0.01866
7.547 K | 0.02044
7.883 K | 0.02258
8.234 K | 0.02467
8.595 K | 0.02641
8.981 K | 0.02942
9.378 K | 0.03231
9.795 K | 0.03497
10.24 K | 0.03897
10.71 K | 0.04317
11.19 K | 0.04767
11.69 K | 0.05284
12.21 K | 0.05868
12.75 K | 0.06538
13.31 K | 0.07304
13.9 K | 0.08149
14.52 K | 0.09112
15.16 K | 0.1021
15.66 K | 0.1115
17.12 K | 0.1425
18.7 K | 0.1842
20.44 K | 0.24
22.34 K | 0.317
24.42 K | 0.423
26.67 K | 0.5669
29.14 K | 0.7607
31.85 K | 1.02
34.81 K | 1.356
38.05 K | 1.784
41.58 K | 2.319
45.44 K | 2.967
49.66 K | 3.728
54.27 K | 4.615
59.31 K | 5.613
64.81 K | 6.718
70.81 K | 7.909
77.38 K | 9.17
84.53 K | 10.51
92.37 K | 11.83
100.93 K | 13.12
111.01 K | 14.49
121.1 K | 15.74
131.22 K | 16.79
141.3 K | 17.72
151.36 K | 18.54
161.49 K | 19.25
171.61 K | 19.88
181.69 K | 20.47
191.79 K | 21.01
201.89 K | 21.48
211.98 K | 21.89
222.08 K | 22.24
232.18 K | 22.58
242.28 K | 22.91
252.36 K | 23.16
262.46 K | 23.41
272.56 K | 23.64
282.64 K | 23.88
292.73 K | 24.08
302.81 K | 24.25
